In patent US20030236276A1, “Pyrrolo[2.1-a]isoquinoline derivatives” (priority 2001, published 2003):

Key:
[1] = tested on: MDA-MB-231 human breast carcinoma cells; experiment: In vitro proliferation inhibition assay (LDH activity, 72 hours); type: cell-based; conditions: MDA-MB-231 cells; for inhibition at 2 µM: read-out: % inhibition at a concentration of 2 μM; for inhibition at 10 µM: read-out: % inhibition at a concentration of 10 μM
Experimental: In vitro Proliferation Inhibition Assay:
MDA-MB-231 human breast carcinoma cells (ATCC #HTB26) were cultured in standard growth medium (DMEM), supplemented with 10% heat-inactivated FBS, 10 mM HEPES, 2 mM glutamine, 100 U/mL penicillin, and 100 μg/mL streptomycin) at 37° C. in 5% CO2 (vol/vol) in a humidified incubator. Cells were plated at a density of 3000 cells per well in 100 μL growth medium in a 96 well culture dish. 24 hours after plating, lactate dehydrogenase (LDH) activity was determined using the Cytotox 96 Non-radioactive Cytotoxicity Kit (Promega, Madison Wis., U.S.A.) to yield T0h LDH values. Briefly, cells were lysed with the addition of 200 μL of Lysis Buffer (included in the Promega Kit) and lysates were further diluted 1:50 in Lysis Buffer. 50 μL of diluted cell lysate were transferred to a fresh 96 well culture plate. The assay was initiated with the addition of 50 μL of substrate per well. Color development was allowed to proceed for 10-15 minutes. The assay was terminated with the addition of 50 μL of Stop Solution (included in the Promega Kit). Optical densities were determined spectrophotometrically at 490 nm in a 96 well plate reader (SpectraMax 250, Molecular Devices, Sunnyvale, Calif., U.S.A.).
Test compounds were dissolved in 100% DMSO to prepare 10 mM stocks. Stocks were further diluted 1:250 in growth medium to yield working stocks of 40 μM test compound in 0.4% DMSO. Test compounds were serially diluted in growth medium containing 0.4% DMSO to maintain constant DMSO concentrations for all wells. 50 μL of fresh growth medium and 50 μL of diluted test compound were added to each culture well to give a final volume of 200 μL. The cells with and without individual test compounds were incubated for 72 hours at which time LDH activity was measured to yield T72h values. Optionally, the IC50 values can be determined with a least squares analysis program using compound concentration versus percent inhibition.
% Inhibition=[1−(T72h test−T0h)/(T72h ctrl−T0h)]×100
T72h test=LDH activity at 72 hours in the presence of test compound
T72h ctrl=LDH activity at 72 hours in the absence of test compound
T0h=LDH activity at Time Zero

PDE 10a = molecular target: T1, PDE 10a (Homo sapiens, UniProt Q9Y233); experiment: In vitro enzyme inhibition assay (PDE 10a, scintillation proximity, [3H]cAMP substrate); type: biochemical; conditions: full-length recombinant PDE 10a, crude Sf9 cell lysate; 60 minutes, room temperature
T1 construct: Full-length recombinant PDE 10a was expressed in Sf9 insect cells; made in house; host or cells: Sf9 insect cells (baculovirus, Bac-to-Bac)
T1 sequence (Q9Y233 1-779 isoform Q9Y233-1): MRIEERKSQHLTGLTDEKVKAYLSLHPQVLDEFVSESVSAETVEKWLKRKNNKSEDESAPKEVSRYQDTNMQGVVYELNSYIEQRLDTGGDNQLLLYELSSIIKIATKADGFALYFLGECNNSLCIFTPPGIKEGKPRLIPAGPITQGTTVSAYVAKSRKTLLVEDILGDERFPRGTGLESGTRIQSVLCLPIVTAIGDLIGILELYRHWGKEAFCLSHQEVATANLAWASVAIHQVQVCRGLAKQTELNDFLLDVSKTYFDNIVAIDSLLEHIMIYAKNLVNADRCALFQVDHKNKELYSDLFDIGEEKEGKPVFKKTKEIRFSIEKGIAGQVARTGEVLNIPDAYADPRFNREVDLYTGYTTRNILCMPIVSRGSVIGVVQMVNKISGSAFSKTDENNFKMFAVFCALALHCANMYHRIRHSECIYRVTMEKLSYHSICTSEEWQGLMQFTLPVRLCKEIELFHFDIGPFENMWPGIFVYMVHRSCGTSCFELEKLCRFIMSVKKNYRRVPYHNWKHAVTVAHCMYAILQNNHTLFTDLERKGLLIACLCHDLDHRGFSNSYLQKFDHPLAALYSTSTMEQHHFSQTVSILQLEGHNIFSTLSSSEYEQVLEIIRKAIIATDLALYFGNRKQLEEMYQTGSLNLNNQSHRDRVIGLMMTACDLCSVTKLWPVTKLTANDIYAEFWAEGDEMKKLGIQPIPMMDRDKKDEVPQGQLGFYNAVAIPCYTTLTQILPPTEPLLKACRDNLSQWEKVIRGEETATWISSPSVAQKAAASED
Experimental: In vitro Enzyme Inhibition Assay:
Full-length recombinant PDE 10a was expressed in Sf9 insect cells (Invitrogen, Carlsbad, Calif., U.S.A.) using the Bac-to-Bac™ Baculovirus Expression System (Life Technologies, Gaithersburg, Md., U.S.A.). 48 hours post infection, cells were harvested and resuspended in 20 mL (per 1L culture) Lysis Buffer (50 mM Tris-HCl, pH 7.4, 50 mM NaCl, 1 mM MgCl2, 1.5 mM EDTA, 10% glycerol plus 20 μL Protease Inhibitor Cocktail Set III [CalBiochem, La Jolla, Calif., U.S.A.]). Cells were sonicated at 4° C. for 1 minute and centrifuged at 10,000 RPM for 30 minutes at 4° C. Supernatant was removed and stored at −20° C. for activity assays.
The test compounds were serially diluted in DMSO using two-fold dilutions to stock concentrations ranging typically from 200 μM to 1.6 μM (final concentrations in the assay range from 4 μM to 0.032 μM). 96-well assay isoplates (Wallac Inc., Atlanta, Ga., U.S.A.) were loaded with 2 μL of the serially diluted individual test compounds followed by 50 μL of a dilution of crude recombinant PDE 10a-containing sf9 cell lysate. The dilution of the lysate was selected such that less than 70% of the substrate is converted during the later incubation (typical dilution: 1:10000; dilution buffer: 50 mM Tris/HCl pH 7.5, 8.3 mM MgCl2, 1.7 mM EDTA, 0.2% BSA). The substrate, [5′,8-^3H] adenosine 3′,5′-cyclic phosphate (1 μCi/μL; Amersham Pharmacia Biotech., Piscataway, N.J., U.S.A.), was diluted 1:2000 in assay buffer (assay buffer: 50 mM Tris/HCl pH 7.5, 8.3 mM MgCl2, 1.7 mM EDTA) to give a final working concentration of 0.0005 μCi/μL. The enzymatic assay was initiated by addition of 50 μL (0.025 μCi) of diluted substrate. Reactions were incubated at room temperature for 60 minutes and terminated by addition of 25 μL of 18 mg/mL Yttrium Scintillation Proximity Beads (Amersham Pharmacia Biotech., Piscataway, N.J., U.S.A.). Plates were sealed and incubated at room temperature for 60 minutes. Plates were read for 30 seconds/well using a Microbeta counter (Wallac Inc., Atlanta, Ga., U.S.A.). The IC50 values were determined by plotting compound concentration versus percent inhibition.

| IC50 (PDE 10a) [nM] | SMILES | inhibition at 2 µM [1] [%] | inhibition at 10 µM [1] [%] |
| --- | --- | --- | --- |
| < 30 | CCOC(=O)c1c(-c2ccc3c(c2)CCN3S(=O)(=O)c2ccccc2)c(C)n2c1-c1cc(OC)c(OC)cc1CC2 [Example 87] | 95 |  |
| 68 | CCOC(=O)c1c(-c2cn(Cc3ccccc3)c3ccccc23)c(C)n2c1-c1cc(OC)c(OC)cc1CC2 [Example 56] | 64 |  |
| 200 | CCOC(=O)c1c(-c2cccc3c2ccn3CCC#N)c(C)n2c1-c1cc(OC)c(OC)cc1CC2 [Example 61] | 90 |  |
| 170 | CCOC(=O)c1c(-c2cccc3c(C(=O)c4ccccc4)c[nH]c23)c(C)n2c1-c1cc(OC)c(OC)cc1CC2 [Example 71] | 72 |  |
| 150 | CCOC(=O)c1c(-c2ccc3ncoc3c2)c(C)n2c1-c1cc(OC)c(OC)cc1CC2 [Example 76, Ethyl 2-(1,3-benzoxazol-6-yl)-8,9-dimethoxy-3-methyl-5,6-dihydropyrrolo[2,1-a]isoquinoline-1-carboxylate] | 63 |  |
| 100 | CCCNC(=O)N1CCc2cc(-c3c(C(=O)OCC)c4n(c3C)CCc3cc(OC)c(OC)cc3-4)ccc21 [Example 81] | 89 |  |
| 1500 | CCOC(=O)c1c(-c2cccc3c2ccn3CC)c(C)n2c1-c1cc(OC)c(OC)cc1CC2 [Example 57, Ethyl 2-(1-ethyl-1H-indol-4-yl)-8,9-dimethoxy-3-methyl-5,6-dihydropyrrolo[2,1-a]-isoquinoline-1-carboxylate] | 89 |  |

The next lines start with the compound.

| SMILES | IC50 (PDE 10a) [nM] | inhibition at 2 µM [1] [%] | inhibition at 10 µM [1] [%] |
| --- | --- | --- | --- |
| CCOC(=O)c1c(-c2ccc3c(c2)CCN3S(C)(=O)=O)c(C)n2c1-c1cc(OC)c(OC)cc1CC2 [Example 88] |  | 40 |  |
| CCOC(=O)c1c(-c2cccc3c(C(=O)C4CC4)c[nH]c23)c(C)n2c1-c1cc(OC)c(OC)cc1CC2 [Example 68, Ethyl 2-[3-(cyclopropylcarbonyl)-1H-indol-7-yl]-8,9-dimethoxy-3-methyl-5,6-dihydropyrrolo[2,1-a]isoquinoline-1-carboxylate] |  | 43 |  |
| CCOC(=O)c1c(-c2c[nH]c3cc(F)ccc23)c(C)n2c1-c1cc(OC)c(OC)cc1CC2 [Example 52] | 220 | 81 |  |
| CCOC(=O)c1c(-c2ccc3[nH]cc(C(C)=O)c3c2)c(C)n2c1-c1cc(OC)c(OC)cc1CC2 [Example 72] |  | 81 |  |
| CCOC(=O)c1c(-c2cn(C)c3ccccc23)c(C)n2c1-c1cc(OC)c(OC)cc1CC2 [Example 23] | 71 | 90 |  |
| CCOC(=O)c1c(C(C)C)c(C)n2c1-c1cc(OC)c(OC)cc1CC2 [Example 5] | 370 |  | 87 |
| CCOC(=O)c1c(-c2c[nH]c3ccc(OC)cc23)c(C)n2c1-c1cc(OC)c(OC)cc1CC2 [Example 12] | 365 | 73 |  |
| CCOC(=O)c1c(-c2c[nH]c3ccc(Cl)cc23)c(C)n2c1-c1cc(OC)c(OC)cc1CC2 [Example 50] | 330 | 77 |  |
| CCOC(=O)c1c(-c2cn(C(C)=O)c3ccccc23)c(C)n2c1-c1cc(OC)c(OC)cc1CC2 [Example 8] | 94 |  | 84 |
| CCOC(=O)c1c(-c2cccc3cc[nH]c23)c(C)n2c1-c1cc(OC)c(OC)cc1CC2 [Example 49] | 110 | 91 |  |
| CCOC(=O)c1c(-c2cccc3ncc(C)cc23)c(C)n2c1-c1cc(OC)c(OC)cc1CC2 [Example 7] | 140 |  | 85 |
| CCOC(=O)c1c(-c2c[nH]c3c(OC)cccc23)c(C)n2c1-c1cc(OC)c(OC)cc1CC2 [Example 46, Ethyl-2-(1H-7-methoxy-indol-3-yl)-8,9-dimethoxy-3-methyl-5,6-dihydropyrrolo[2,1-a]isoquinoline-1-carboxylate] | 220 | 90 |  |
